From US20240299353A1, “COMPOSITIONS AND METHODS FOR TREATING […] 5-MEO-DMT” (Alvarius Pharmaceuticals Ltd., priority 2021, published 2024)

Experiments:
H3K9Me2 = conditions: repeated cocaine; cited from earlier work
5-HT2AR = 5-HT2AR (Rattus norvegicus, UniProt P14842); conditions: read-out: Ki for the 5-HT2AR; non-canonical signaling, liberation of arachidonic acid; cited from earlier work
5-HT1AR = conditions: canonical signaling activity measured; read-out: affinity (Ki) for the 5-HT1AR subtype; cited from earlier work
[1] = test system: top 10 cocaine-dysregulated biological pathways in the hippocampus; assay: Biological pathway analysis (IPA) of transcriptomics, cocaine-dysregulated pathways; type: in vivo, Male Wister rats; conditions: single treatment
Protocol: Animals were then randomly allocated to one of five groups and received a single i.p. injection of one of vehicle, 5 mg/kg 5-Meo-DMT, 0.14 mg/kg LSD, 1 mg/kg psilocybin, or 1 mg/kg DOI. On day 15, animals were euthanised and the hippocampus blunt dissected, snap frozen in liquid nitrogen and stored at −80° C. until further processing.
Subsequent pathway analyses were done using Ingenuity Pathway Analysis (IPA). Analysis settings for IPA included the Ingenuity Knowledge Base (Genes Only), direct and indirect relationships, and endogenous chemicals of the previously filtered list of differentially expressed genes. IPA was filtered to only consider molecules where the species were human, rat, or mouse and the confidence can be experimentally observed. Canonical pathways were utilized in pathway analysis, where the spreadsheet organized the values of significance to −log(p-value) and the rate of regulation to the z-score. Negative z-score values indicate downregulation and positive values indicate upregulation.

rats = assay: Acute adverse effects (serotonin-associated toxicity) in the behaviour study; type: in vivo
Protocol: In this instance the animals were 9 weeks old at the initiation of drug exposures and we selected just the high (20 mg/kg) dose of 5-MeO-DMT from the molecular study. […] Due to the number of behavioral paradigms to be completed by each animal we divided the study into two cohorts staggered by two weeks with 8 animals coming from each cohort to make up the 16 animals for each treatment group. 23 hours after 5-MeO-DMT administration the animals were introduced to the open field arena where they were allowed to freely explore the area for 5 mins. Following the open field test (OFT) animals were returned to their home cage for 2 hours before beginning either the elevated plus maze (EPM) or pre-pulse inhibition (PPI) testing. 24 hours after completing the OFT animals were returned to the chamber for the first session in novel object (NO1) testing. The animals were returned to their home cage for 2 hours before beginning the EPM or PPI test. 24 hours after NO1 the animals returned to the open field chamber for the second session in novel object (N02) testing. After completing N02 animals were returned to their home cage for 2 hours before they underwent the forced swim test (FST) pre-test. 24 hours later the animals were returned to the FS cylinders for the FST. Upon completion of the FST all animals were euthanized. A timeline of this experimental cohort is described in FIG. 8A.
Within 5-10 mins of administration a series of symptoms emerged that we believed were indicative of acute serotonin-associated toxicity, usually termed “serotonin syndrome” as a result of excessive serotonergic activity (Haberzettl et al. 2013). These symptoms overlap with those induced by acute psychedelic administration including head twitches, tremor, hind limb abduction, Straub tail, head shaking, head weaving and flat/low body posture however in this instance symptoms progressed rapidly to include hyperthermia, tachycardia, trembling and seizures. […] In total 7 of the 16 animals that were administered 20 mg/kg 5-MeO-DMT died or were euthanized for ethical reasons. […] As the study was divided into two cohorts we consulted with the designated vet in BMF as to what amendments should be made to our study protocol to reduce the risk of harm to animals in cohort 2 and a number of changes were implemented to the study design as outlined below.
The experiment was conducted as described for cohort 1 for the first 13 days of injections. There are a number of notable differences in experimental procedures between the two cohorts of animals to be highlighted. […] Finally, the dose of 5-MeO-DMT was reduced to 10 mg/kg. The order and timing of all the behavioral paradigms were kept constant between the cohorts. A timeline of this experimental cohort is described in FIG. 8B. Additionally, 5-MeO-DMT administrations were staggered so animals could be observed for the duration of acute drug effects and to ensure recovery prior to the next animal being injected. The typical symptoms of psychedelic drug administration outlined above were reproduced in all animals administered 5-MeO-DMT.

[2] = i.p. administration, rodents; cited from earlier work
cerebral organoids = conditions: 5-MeO-DMT treated cerebral organoids; cited from earlier work

Chain of 5-HT2AR (P14842 whole entry): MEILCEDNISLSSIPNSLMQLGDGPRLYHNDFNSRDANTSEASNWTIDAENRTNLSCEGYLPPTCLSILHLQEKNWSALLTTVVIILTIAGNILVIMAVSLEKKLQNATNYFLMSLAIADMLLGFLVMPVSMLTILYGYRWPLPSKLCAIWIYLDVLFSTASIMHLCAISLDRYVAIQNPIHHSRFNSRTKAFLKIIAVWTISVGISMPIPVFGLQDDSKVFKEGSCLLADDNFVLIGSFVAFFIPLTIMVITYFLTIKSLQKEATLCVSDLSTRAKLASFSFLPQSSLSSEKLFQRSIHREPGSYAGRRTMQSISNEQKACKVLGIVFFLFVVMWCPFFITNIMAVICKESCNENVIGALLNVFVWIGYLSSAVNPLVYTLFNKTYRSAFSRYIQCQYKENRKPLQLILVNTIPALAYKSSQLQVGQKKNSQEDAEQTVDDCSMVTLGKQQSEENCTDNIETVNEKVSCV

SMILES | decrease in H3K9Me2 expression (H3K9Me2) [%] | Ki (5-HT2AR) [nM] | Ki (5-HT1AR) [nM] | number of the top 10 dysregulated pathways corrected [1] [pathways] | top 10 cocaine-dysregulated biological pathways corrected [1] [%] | time to emergence of symptoms indicative of acute serotonin-associated toxicity (rats; cohort 1 (20 mg/kg 5-MeO-DMT)) [min] | adverse effects after administration (rats; cohort 1, 20 mg/kg 5-MeO-DMT, 1 h after last saline or cocaine) | animals that died or were euthanized for ethical reasons (rats; cohort 1, all animals administered 20 mg/kg 5-MeO-DMT) | animals that died or were euthanized (rats; cohort 1, cocaine+5-MeO-DMT (20 mg/kg) group) [animals] | animals that died or were euthanized (rats; cohort 1, saline+5-MeO-DMT (20 mg/kg) group) [animals] | animals euthanized for early signs of serotonin-associated toxicity (rats; cohort 2, saline+5-MeO-DMT (10 mg/kg) group) [animals] | terminal half-life (t½) [2] [min] | time of maximal drug concentration [2] [min] | mGluR5 receptor expression (cerebral organoids)
COC(=O)[C@H]1[C@@H](OC(=O)c2ccccc2)C[C@@H]2CC[C@H]1N2C.Cl [cocaine, cocaine hydrochloride, reference compound] | 15 | – | – | – | – | – | – | – | – | – | – | – | – | –
COc1ccc2[nH]cc(CCN(C)C)c2c1 [5-MeO-DMT, 5-methoxy-N,N-dimethyltryptamine] | – | 190 | < 10 | 9 | 90 | 5 to 10 | strong adverse effects in a significant proportion of animals | 7 of the 16 | 5 | 2 | 2 | 12 to 19 | 5 to 7 | decrease in mGluR5 receptor expression
